Assay results as given in PubChem BioAssay AID330 (DTP/NCI, 2004).
“And” between values parts separate entries of the source, which are not always exact repeats. Equal values may be shown once. Inconclusive results and toxic doses are left out. The calls were made as follows: active = survival T/C of 150% or more; inactive = T/C below 125% in these data.

System: P388 leukemia ip, CD2F1 mice, survival T/C
Assay: NCI In Vivo Anticancer Drug Screen. Data for tumor model P388 Leukemia (intraperitoneal) in CD2F1 (CDF1) mice
Settings: endpoint: median survival time, higher = longer survival
Summary of the method: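 Mice carrying the transplanted tumor received test compound or vehicle. Survival was recorded in each group, and the value is the treated-group measurement divided by that of the vehicle-treated control group.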

[1] = dose: 25.0 mg/kg/injection, schedule: Q01DX009 (ip), vehicle: saline with Tween-80
[2] = dose: 50.0 mg/kg/injection, schedule: Q01DX009 (ip), vehicle: saline with Tween-80
[3] = dose: 100.0 mg/kg/injection, schedule: Q01DX009 (ip), vehicle: saline with Tween-80
[4] = dose: 200.0 mg/kg/injection, schedule: Q01DX009 (ip), vehicle: saline with Tween-80
[5] = dose: 50.0 mg/kg/injection, schedule: Q01DX005 (ip), vehicle: Klucel (hydroxypropylcellulose) (HPC)
[6] = dose: 100.0 mg/kg/injection, schedule: Q01DX005 (ip), vehicle: Klucel (hydroxypropylcellulose) (HPC)
[7] = dose: 200.0 mg/kg/injection, schedule: Q01DX005 (ip), vehicle: Klucel (hydroxypropylcellulose) (HPC)
[8] = dose: 12.5 mg/kg/injection, schedule: Q01DX005 (ip), vehicle: saline
[9] = dose: 25.0 mg/kg/injection, schedule: Q01DX005 (ip), vehicle: saline
[10] = dose: 50.0 mg/kg/injection, schedule: Q01DX005 (ip), vehicle: saline
[11] = dose: 25.0 mg/kg/injection, schedule: Q01DX005 (ip), vehicle: Klucel (hydroxypropylcellulose) (HPC)
[12] = dose: 50.0 mg/kg/injection, schedule: Q01DX005 (ip), vehicle: saline with Tween-80
[13] = dose: 100.0 mg/kg/injection, schedule: Q01DX001 (ip), vehicle: Klucel (hydroxypropylcellulose) (HPC)
[14] = dose: 200.0 mg/kg/injection, schedule: Q01DX001 (ip), vehicle: Klucel (hydroxypropylcellulose) (HPC)

Measured: T/C

O=C1CCCC(CCc2ccccc2)O1 (centres undefined)
inactive: dose: 100.0 mg/kg/injection, schedule: Q01DX001 (ip), vehicle: saline with Tween-80 100 % of control | dose: 200.0 mg/kg/injection, schedule: Q01DX001 (ip), vehicle: saline with Tween-80 101 % of control | dose: 400.0 mg/kg/injection, schedule: Q01DX001 (ip), vehicle: saline with Tween-80 100 % of control

CC1(C)CC(=O)C=C(NCc2ccccc2)C1
inactive: [1] 104 % of control | [2] 104 % of control and 90 % of control | [3] 101 % of control and 96 % of control | [4] 99 % of control and 91 % of control

CCCCCCCCCCSCC(N)C(=O)O (centres undefined)
inactive: dose: 50.0 mg/kg/injection, schedule: Q01DX009 (ip), vehicle: other 89 % of control | dose: 100.0 mg/kg/injection, schedule: Q01DX009 (ip), vehicle: other 88 % of control | dose: 200.0 mg/kg/injection, schedule: Q01DX009 (ip), vehicle: other 94 % of control | dose: 400.0 mg/kg/injection, schedule: Q01DX009 (ip), vehicle: other 99 % of control

O=[N+]([O-])c1cc([N+](=O)[O-])c2ccccc2c1NS(=O)(=O)c1ccc(Cl)c(Cl)c1Cl
inactive: [2] 103 % of control and 122 % of control | [3] 112 % of control | [4] 106 % of control

CCOC(=O)c1cc([N+](=O)[O-])c(SSc2sc(C(=O)OCC)cc2[N+](=O)[O-])s1
inactive: dose: 100.0 mg/kg/injection, schedule: Q04DX003 (ip), vehicle: saline with Tween-80 104 % of control | dose: 200.0 mg/kg/injection, schedule: Q04DX003 (ip), vehicle: saline with Tween-80 96 % of control | dose: 400.0 mg/kg/injection, schedule: Q04DX003 (ip), vehicle: saline with Tween-80 95 % of control

COC(=O)CC1(C(=O)OC)c2sc(-c3ccccc3)c(-c3ccccc3)c2N2CCCC21 (centres undefined)
inactive: dose: 11.25 mg/kg/injection, schedule: Q01DX009 (ip), vehicle: Klucel (hydroxypropylcellulose) (HPC) 97 % of control | dose: 22.5 mg/kg/injection, schedule: Q01DX009 (ip), vehicle: Klucel (hydroxypropylcellulose) (HPC) 97 % of control | dose: 45.0 mg/kg/injection, schedule: Q01DX009 (ip), vehicle: Klucel (hydroxypropylcellulose) (HPC) 97 % of control

O=C(CBr)c1cc2c(cc1Br)OCO2
inactive: dose: 12.5 mg/kg/injection, schedule: Q01DX001 (ip), vehicle: Klucel (hydroxypropylcellulose) (HPC) 102 % of control | dose: 25.0 mg/kg/injection, schedule: Q01DX001 (ip), vehicle: Klucel (hydroxypropylcellulose) (HPC) 104 % of control | dose: 50.0 mg/kg/injection, schedule: Q01DX001 (ip), vehicle: Klucel (hydroxypropylcellulose) (HPC) 103 % of control

O=S(=O)(O)CN1CCN(CCN(CS(=O)(=O)O)CS(=O)(=O)O)CC1
inactive: [5] 100 % of control | [6] 100 % of control | [7] 96 % of control

O=C1C=CC(=Nc2cc(Cl)c(O)c(Cl)c2)C=C1Cl
inactive: [8] 96 % of control | [9] 100 % of control | [10] 93 % of control

CC1CCC2(OC1)OC1CC3C4CC=C5CC(OC6OC(CO)C(OC7OC(C)C(OC8OC(C)C(O)C(O)C8O)C(O)C7O)C(O)C6OC6OC(C)C(O)C(O)C6O)CCC5(C)C4CCC3(C)C1C2C (centres undefined)
inactive: dose: 0.62 mg/kg/injection, schedule: Q01DX009 (ip), vehicle: saline 106 % of control | dose: 1.25 mg/kg/injection, schedule: Q01DX009 (ip), vehicle: saline 91 % of control | dose: 2.5 mg/kg/injection, schedule: Q01DX009 (ip), vehicle: saline 90 % of control

COc1ccc(OC)c(C(=O)c2ccccc2C(=O)O)c1
inactive: [11] 102 % of control | [5] 100 % of control | [6] 96 % of control

CC(C)c1nnc2cc3oc4ccccc4c3cc2c1N
inactive: dose: 6.25 mg/kg/injection, schedule: Q01DX005 (ip), vehicle: saline with Tween-80 100 % of control | dose: 12.5 mg/kg/injection, schedule: Q01DX005 (ip), vehicle: saline with Tween-80 96 % of control | dose: 25.0 mg/kg/injection, schedule: Q01DX005 (ip), vehicle: saline with Tween-80 106 % of control | [12] 106 % of control

Cc1cc(NCCCN(C)C)c2ccc3c(ccc4c(NCCCN(C)C)cc(C)nc43)c2n1
inactive: dose: 12.5 mg/kg/injection, schedule: Q01DX009 (ip), vehicle: saline with Tween-80 98 % of control | [1] 118 % of control

CN1C(=O)c2ccc3c4ccc5c6c(ccc(c7ccc(c2c37)C1=O)c64)C(=O)OC5=O
inactive: [5] 101 % of control | [6] 101 % of control | [7] 103 % of control

COC(=N)N(C)/N=C/c1ccccc1
inactive: [13] 114 % of control | [14] 115 % of control

Fc1ccc(NC(=S)SCc2ccco2)cc1
inactive: dose: 50.0 mg/kg/injection, schedule: Q01DX009 (ip), vehicle: suspension in saline 101 % of control | dose: 100.0 mg/kg/injection, schedule: Q01DX009 (ip), vehicle: suspension in saline 98 % of control | dose: 200.0 mg/kg/injection, schedule: Q01DX009 (ip), vehicle: suspension in saline 92 % of control

C/C=C(\C)C(=O)OC1CCC2(C)C3CCC4C5(O)CC(O)C6(O)C(CN7CC(C)CCC7C6(C)O)C5(O)CC42OC13O (centres undefined)
inactive: dose: 1.56 mg/kg/injection, schedule: Q01DX005 (ip), vehicle: Klucel (hydroxypropylcellulose) (HPC) 98 % of control | dose: 1.56 mg/kg/injection, schedule: Q01DX005 (ip), vehicle: saline 96 % of control | dose: 3.12 mg/kg/injection, schedule: Q01DX005 (ip), vehicle: Klucel (hydroxypropylcellulose) (HPC) 106 % of control | dose: 3.12 mg/kg/injection, schedule: Q01DX005 (ip), vehicle: saline 96 % of control | dose: 6.25 mg/kg/injection, schedule: Q01DX005 (ip), vehicle: Klucel (hydroxypropylcellulose) (HPC) 109 % of control and 91 % of control | dose: 6.25 mg/kg/injection, schedule: Q01DX005 (ip), vehicle: saline 96 % of control

CCCCCCCCCCCCCCSCCCCCCCCCCCCCC
inactive: [11] 100 % of control | [5] 99 % of control | [6] 92 % of control | [7] 92 % of control

CCC(CC)NCCNc1cc(OC)cc2cccnc12
inactive: [8] 109 % of control | [9] 108 % of control | [10] 100 % of control and 103 % of control

CCOC(=O)CC1(O)CSC(=C(C#N)C#N)S1 (centres undefined)
inactive: [12] 100 % of control | dose: 100.0 mg/kg/injection, schedule: Q01DX005 (ip), vehicle: saline with Tween-80 100 % of control | dose: 200.0 mg/kg/injection, schedule: Q01DX005 (ip), vehicle: saline with Tween-80 92 % of control

CCN(CC)CCCC(C)NC(=O)c1ccc2c(c1O)C(=O)c1ccccc1C2=O (centres undefined)
inactive: dose: 1.25 mg/kg/injection, schedule: Q01DX009 (ip), vehicle: water 100 % of control and 102 % of control | dose: 2.5 mg/kg/injection, schedule: Q01DX009 (ip), vehicle: water 101 % of control and 105 % of control | dose: 5.0 mg/kg/injection, schedule: Q01DX009 (ip), vehicle: water 106 % of control and 108 % of control | dose: 10.0 mg/kg/injection, schedule: Q01DX009 (ip), vehicle: water 99 % of control and 101 % of control and 94 % of control | dose: 20.0 mg/kg/injection, schedule: Q01DX009 (ip), vehicle: water 99 % of control and 101 % of control

COc1ccc(Oc2c(OC)cc(NCCCCCN3C(=O)c4ccccc4C3=O)c3ncccc23)cc1
inactive: [2] 88 % of control | [3] 97 % of control | [4] 89 % of control

CSC1=NN(C(C)=O)C(c2ccccn2)S1 (centres undefined)
inactive: [5] 100 % of control | [6] 100 % of control | [7] 101 % of control

O=C1C(N=Nc2cc(Cl)ccc2Cl)C(O)N(c2ccccc2)C(=S)N1c1cccc(Cl)c1Cl (centres undefined)
inactive: [13] 98 % of control | [14] 97 % of control | dose: 400.0 mg/kg/injection, schedule: Q01DX001 (ip), vehicle: Klucel (hydroxypropylcellulose) (HPC) 92 % of control
